We go through 9 substances from patent US5410024A, “Human cancer inhibitory pentapeptide amides” (Arizona Board of Regents acting on behalf of Arizona State …, priority 1993, dated 1995).

Common to all, as to format: cell-based
One test relates to OVCAR-3. Kind of test: NCI human tumor cell line screen, Ovarian OVCAR-3. As to conditions: Ovarian OVCAR-3. An excerpt: (§1) Current research in the control of cancer in the United States is coordinated by the National Cancer Institute (NCI). To determine whether a substance has anti-cancer properties, the NCI has established a systematic protocol. […] The protocol, and the established statistical means for analyzing the results obtained by the standardized testing are fully described in the literature. […] Both of these references are incorporated herein by this reference thereto.

A further test relates to SF-295. Kind of test: NCI human tumor cell line screen, CNS SF-295. As to conditions: CNS SF-295.
Excerpt: as §1

For the next test, the system named is A498. The test is described as follows: NCI human tumor cell line screen, Renal A498. As to conditions: Renal A498.
Excerpt: as §1

The next test has as its system NCI-H460. The test is described as follows: NCI human tumor cell line screen, Lung-NSC NCI-H460. To be noted: Lung-NSC NCI-H460.
Excerpt: as §1

For the next test, the system named is KM20L2. The test is described as follows: NCI human tumor cell line screen, Colon KM20L2. As to conditions: Colon KM20L2.
Excerpt: as §1

A further test has as its system SK-MEL-5. The test is described as follows: NCI human tumor cell line screen, Melanoma SK-MEL-5. To be noted: Melanoma SK-MEL-5.
Excerpt: as §1

A further test has as its system human tumor cell lines. Kind of test: Inhibition of human tumor cell lines (general statements). The source says: Current research in the control of cancer in the United States is coordinated by the National Cancer Institute (NCI). To determine whether a substance has anti-cancer properties, the NCI has established a systematic protocol. This protocol, which involves the testing of a substance against a standard cell line panel containing 60 human tumor cell lines, has been verified and is accepted in scientific circles. The protocol, and the established statistical means for analyzing the results obtained by the standardized testing are fully described in the literature. See: Boyd, Dr. Michael R., Principles & Practice of Oncology, PPO Updates, Volume 3, Number 10, October 1989, for an in depth description of the testing protocol; and Paull, K. D., "Display and Analysis of Patterns of Differential Activity of Drugs Against Human Tumor Cell Lines; Development of Mean Graph and COMPARE Algorithm", Journal of the National Cancer Institute Reports, Vol. 81, No. 14, Page 1088, Jul. 14, 1989 for a description of the methods of statistical analysis. Both of these references are incorporated herein by this reference thereto.

One may read the TGI as the concentration giving total growth inhibition.

On to “L-Dolavalyl-L-Valyl-N-Methyl-(S,S,R)-Dolaisoleucyl-(S,R,R)-Dolaproyl-L-Phenylalanineamide-N-[2-(4-methylthiazole)] [Compound 9b]”, for which the GI-50 with OVCAR-3 is 0.00000020 µg/mL; with SF-295, 0.0000026 µg/mL; in the test with A498 it was 0.0000053 µg/mL; with NCI-H460 it was 0.00000046 µg/mL; in the test on KM20L2, 0.0000034 µg/mL; in the test with SK-MEL-5, 0.00000081 µg/mL. The TGI with OVCAR-3 was 0.012 ng/mL; with SF-295, more than 0.1 ng/mL; with A498, more than 0.1 ng/mL; in the test on NCI-H460 it was 0.013 ng/mL; with KM20L2, 0.017 ng/mL; with SK-MEL-5 it was more than 0.1 ng/mL. Besides, the LC-50 in the test on SF-295, in the test on A498, in the test on NCI-H460, in the test on KM20L2 and with SK-MEL-5 was more than 0.0001 µg/mL throughout.

Regarding “(R)-Doe-isoDolastatin 10 [reference compound]”, the “human cancer cell line activity as compared to Dolastatin 10” value with human tumor cell lines is reported as “did not show any significant difference”.

Take “L-Dolavalyl-L-Valyl-N-Methyl-(S,S,R)-Dolaisoleucyl-(S,R,R)-Dolaproyl-L-Phenylalanineamide-N-[2-(4-phenylthiazole)] [Compound 9c]”: the GI-50 with OVCAR-3 is 0.000020 µg/mL; with SF-295, 0.000065 µg/mL; in the test with A498 it was 0.000057 µg/mL; in the test on NCI-H460, 0.000056 µg/mL; in the test on KM20L2, 0.0002 µg/mL; in the test with SK-MEL-5 it was 0.000043 µg/mL. Besides, the LC-50 with OVCAR-3, in the test with SF-295, with A498, in the test with NCI-H460, in the test with KM20L2 and in the test with SK-MEL-5 was more than 0.001 µg/mL in each case. Further, the TGI with OVCAR-3 was 0.13 ng/mL; in the test with SF-295 it was more than 1 ng/mL; in the test with A498, 0.72 ng/mL; in the test on NCI-H460, 0.51 ng/mL; in the test on KM20L2, 0.75 ng/mL; in the test on SK-MEL-5, 0.33 ng/mL.

For “L-Dolavalyl-L-Valyl-N-Methyl-(S,S,R)-Dolaisoleucyl-(S,R,R)-Dolaproyl-L-Phenylalanineamide-N-(2-thiazole) [Compound 9a]”, the GI-50 worked out at 0.0000005 µg/mL in the test on OVCAR-3; 0.0000038 µg/mL in the test with SF-295; 0.0000056 µg/mL in the test with A498; 0.0000018 µg/mL in the test on NCI-H460; 0.0000020 µg/mL in the test with KM20L2; 0.0000014 µg/mL in the test on SK-MEL-5. This substance returned an LC-50 with OVCAR-3 of 0.000088 µg/mL. Moreover, the TGI was 0.0044 ng/mL with OVCAR-3; more than 0.1 ng/mL in the test with SF-295; 0.09 ng/mL in the test with A498; 0.009 ng/mL in the test with NCI-H460; 0.011 ng/mL in the test with KM20L2; 0.08 ng/mL with SK-MEL-5.

With “L-Dolavalyl-L-Valyl-N-Methyl-(S,S,R)-Dolaisoleucyl-(S,R,R)-Dolaproyl-L-Phenylalanineamide-N-[2-(6-methoxybenzo-thiazole)] [Compound 9f]”, the GI-50 was 0.00032 µg/mL in the test with OVCAR-3; 0.00055 µg/mL in the test with SF-295; 0.00037 µg/mL in the test on A498; 0.00033 µg/mL in the test on NCI-H460; 0.00036 µg/mL in the test on KM20L2; 0.000090 µg/mL with SK-MEL-5. Also, the LC-50 in the test with OVCAR-3, with SF-295, in the test with A498, in the test on NCI-H460, in the test with KM20L2 and with SK-MEL-5 was more than 0.01 µg/mL each time. The concentration for total growth inhibition (TGI) with OVCAR-3 was 1.1 ng/mL; in the test on SF-295, more than 10 ng/mL; in the test with A498, more than 10 ng/mL; with NCI-H460, 1.6 ng/mL; in the test with KM20L2, 2.2 ng/mL; with SK-MEL-5, more than 10 ng/mL.

As for “L-Dolavalyl-L-Valyl-N-Methyl-(S,S,R)-Dolaisoleucyl-(S,R,R)-Dolaproyl-L-Phenylalanineamide-N-(methenyl-2-pyridine) [Compound 9i]”, the GI-50 turned out to be 0.000056 µg/mL with OVCAR-3; 0.00036 µg/mL in the test with SF-295; 0.00059 µg/mL in the test with A498; 0.000051 µg/mL with NCI-H460; 0.00033 µg/mL in the test with KM20L2; 0.000029 µg/mL in the test with SK-MEL-5. The LC-50 in the test on OVCAR-3, in the test on SF-295, in the test on A498, in the test on NCI-H460, in the test with KM20L2 and in the test with SK-MEL-5 was more than 0.01 µg/mL in each case. Moreover, the TGI was 2 ng/mL with OVCAR-3; more than 10 ng/mL in the test on SF-295; more than 10 ng/mL with A498; 1 ng/mL in the test on NCI-H460; more than 10 ng/mL in the test on KM20L2; more than 10 ng/mL with SK-MEL-5.

On to “L-Dolavalyl-L-Valyl-N-Methyl-(S,S,R)-Dolaisoleucyl-(S,R,R)-Dolaproyl-L-Phenylalanineamide-N-(1-adamantane) [Compound 9j]”, for which the GI-50 in the test on OVCAR-3 came to 0.000019 µg/mL; in the test on SF-295, 0.000030 µg/mL; in the test with A498, 0.000034 µg/mL; in the test with NCI-H460, 0.000014 µg/mL; with KM20L2, 0.000027 µg/mL; with SK-MEL-5, 0.000022 µg/mL. Besides, the LC-50 in the test on OVCAR-3, in the test on SF-295, in the test on A498, in the test with NCI-H460, in the test on KM20L2 and in the test on SK-MEL-5 was more than 0.0001 µg/mL throughout. Also, the TGI in the test on OVCAR-3 is 0.055 ng/mL; in the test with SF-295, more than 0.1 ng/mL; with A498 it was more than 0.1 ng/mL; with NCI-H460, 0.057 ng/mL; in the test with KM20L2 it was 0.072 ng/mL; with SK-MEL-5, more than 0.1 ng/mL.

Regarding “L-Dolavalyl-L-Valyl-N-Methyl-(S,S,R)-Dolaisoleucyl-(S,R,R)-Dolaproyl-L-Phenylalanineamide-N-[2-(1,3,4-thiadiazole)] [Compound 9d]”, the GI-50 in the test on OVCAR-3 was 0.0000031 µg/mL; in the test on SF-295 it was 0.000024 µg/mL; with A498, 0.000039 µg/mL; in the test with NCI-H460, 0.0000036 µg/mL; with KM20L2, 0.0000099 µg/mL; in the test with SK-MEL-5 it was 0.0000082 µg/mL. Moreover, the LC-50 was more than 0.0001 µg/mL in the test on OVCAR-3; more than 0.0001 µg/mL in the test on SF-295; more than 0.0001 µg/mL in the test on A498; more than 0.0001 µg/mL in the test with NCI-H460; 0.00069 µg/mL in the test on KM20L2; 0.00043 µg/mL in the test on SK-MEL-5. The TGI in the test on OVCAR-3 is 0.16 ng/mL; in the test with SF-295, more than 0.1 ng/mL; with A498, more than 0.1 ng/mL; with NCI-H460, 0.061 ng/mL; in the test with KM20L2, 0.015 ng/mL; in the test with SK-MEL-5 it was 0.007 ng/mL.

For the substance “L-Dolavalyl-L-Valyl-N-Methyl-(S,S,R)-Dolaisoleucyl-(S,R,R)-Dolaproyl-L-Phenylalanineamide-N-(methenyl-2-thiophene) [Compound 9h]”, the GI-50 is less than 0.000001 µg/mL with OVCAR-3; 0.00014 µg/mL in the test with SF-295; 0.000055 µg/mL in the test on A498; 0.0000089 µg/mL in the test on NCI-H460; 0.000049 µg/mL with KM20L2; less than 0.000001 µg/mL with SK-MEL-5. Also, the LC-50 in the test with OVCAR-3 was 0.0097 µg/mL; in the test on SF-295, more than 0.01 µg/mL; in the test on A498 it was more than 0.01 µg/mL; with NCI-H460, more than 0.01 µg/mL; in the test with KM20L2, more than 0.01 µg/mL; with SK-MEL-5, more than 0.01 µg/mL. Also, the TGI is 0.28 ng/mL in the test with OVCAR-3; more than 10 ng/mL with SF-295; 6.9 ng/mL with A498; 0.37 ng/mL with NCI-H460; 1.3 ng/mL in the test with KM20L2; more than 10 ng/mL in the test with SK-MEL-5.
